Columns and labels:
[1] = Scavenging test of DPPH free radical; type: biochemical; conditions: for Scavenging efficiency (%): 200 μM DPPH, 30 minutes
Protocol: DPPH (1,1-diphenyl-2-picrylhydrazyl) was used as a source of free radicals to examine the scavenging efficiency of the caffeamide derivatives prepared in Example 1 on free radicals. […] The mixtures were placed in the dark at room temperature for 30 minutes and its absorbance at 517 nm was measured by an enzyme immunoassay analyzer. In this experiment, 50 volume % propanediol was used to replace extracts and to be a control group, ascorbic acid (vitamin C) was used as a positive control group, and methanol was used to replace DPPH as the background value. The scavenging efficiency of caffeamide derivatives on free radicals was examined by the formula blow, and the results are shown in Table 2, FIG. 1a, and FIG. 1b. Scavenging efficiency(%)=[the absorbance of the control group−the absorbance of the experimental group/the absorbance of the control group]×100%.

[2] = test system: human fibroblast Hs68 cells; experiment: Scavenging test of ROS free radicals in UVB-irradiated cells; type: cell-based; conditions: UVB 80 mJ/cm^2, 24 hours
Protocol: After incubated in an incubator (37° C., 5% CO2) for 24 hours, the ROS level was examined.

[3] = test system: MMP-1; experiment: MMP expression, western blot, UVB-irradiated Hs68 cells; type: cell-based, human; conditions: 5 μM; UVB 40 mJ/cm^2; 48 hours
Protocol: (§1) Human fibroblast Hs68 cells (5×10^5) (the number of Bioresource Collection and Research Center (BCRC): 60038) were counted and incubated in a culture dish with a diameter of 10 cm (the culture dish components were adjusted by L-glutamine (4 mM) to have 1.5 g/L NaHCO3, 4.5 g/L glucose, and 90% Dulbecco's Modified Eagle's Medium with 10% fetal bovine serum (FBS)). The medium was removed until human fibroblast Hs68 cells grow to a confluence of 80%, and the cells were then washed once with 5 ml PBS (phosphate buffered saline). Then, 3 ml phenol red-free medium which contain different concentrations (0 μM to 25 μM) of the compounds of formula (1) or formula (2) prepared in Example 1 were added into the culture dish. After incubating for 1 hour, the cells were irradiated by UV light (UVB with an intensity of 40 mJ/cm^2) for 15 seconds. Next, the phenol red-free medium which contains different concentrations (0 μM to 25 μM) of the compounds of formula (1) or formula (2) prepared in Example 1 were added into the culture dish sequentially. After incubation in an incubator (37° C., 5% CO2) for 48 hours, the cells were collected.
(§2) The collected cells were treated with a sonication buffer (containing Na3VO4 (100 μM), phenylmethanesulfonyl fluoride (PMSFL, 100 mg/ml), leupeptin (20 mg/ml), Tris-HCl (pH 7.4, 50 μM), NaCl (37.5 μM), DL-dithiothretiol (250 μM), sodium deoxycholate (3 μM), EDTA (1 μM), SDS (0.1%), and Igepal™ CA-630 (Sigma-Aldrich, 1%)) and sonicated to rupture the cell membranes. Then, the organelles and fragments of the cells were precipitated by centrifugation, and the supernatant, which contains proteins in the cytosol was collected. Next, the obtained proteins were separated by SDS-PAGE, and transferred to a membrane by western blotting. Antibodies were used to recognize the targeted proteins, such as MMP-1, MMP-3, MMP-9, and actin. The images were recorded by a Luminescent imagination technology (LAS-4000, FUJIFILM), and the variation of the proteins expression levels were determined by a quantitative analysis software (multi Gauge 2.2, Steware Technology Inc.).

[4] = test system: MMP-3; experiment: as above; type: cell-based, human; conditions: 5 μM; UVB 40 mJ/cm^2; 48 hours
Protocol: as §1, §2

[5] = test system: p-ERK; experiment: Inhibition test of the phosphorylation of MAPK, western blot; type: cell-based, human; conditions: UVB 40 mJ/cm^2
Protocol: (§3) It has been known that the skin photo-aging caused by UV rays will increase the content of MMPs in the dermis by the phosphorylation of MAPK. In this experiment, the effect of caffeamide derivative on the phosphorylation of MAPK in the cells was analyzed by western blotting.
(§4) After being treated with the compound of formula (2) prepared in Example 1, the protein expression levels of the MAPKs induced by UVB were inhibited in a concentration dependent way. Specifically, when the concentration of the compound of formula (2) was 10 μM, the expression level of P-ERK was 1.1 times as compared to that of the untreated cells. When the concentration of the compound of formula (2) was 5 μM, the expression levels of p-JNK and p-p38 were both 1.1 times as compared to that of the untreated cells.

[6] = test system: p-JNK; experiment: as above; type: cell-based, human; conditions: UVB 40 mJ/cm^2
Protocol: as §3, §4

[7] = test system: p-p38; experiment: as above; type: cell-based, human; conditions: UVB 40 mJ/cm^2
Protocol: as §3, §4

[8] = test system: c-Fos; experiment: Inhibition test of AP-1 gene transcription factors, western blot; type: cell-based, human; conditions: 5 μM; UVB 40 mJ/cm^2
Source text: (§5) When cells are irradiated by UV rays, JNK, p38 and c-Jun in the cells will translocated into the nucleus, and c-For will translocate into the nucleus under the regulation of ERK and p38. The two subunits of c-Jun and c-Fos will combine to form an AP-1 gene transcription factor to participate in gene expression process and increase the mRNA transcription level of MMP-1. On the other hand, the two subunits can also reduce the gene expression level of procollagen al of Type I collagen. Therefore, in this experiment, the expression of AP-1 in the nucleus was analyzed by western blotting.
(§6) However, after the cells were treated with the compound of formula (2) prepared in Example 1, the protein expression levels of c-Fos, p-c-Jun, and c-Jun induced by UVB were inhibited in a concentration dependent way. Specifically, when the concentration of the compound of formula (2) was 10 μM, the expression level of c-Fos was 1.1 as compared to that of the untreated cells.

[9] = test system: c-Jun; experiment: as above; type: cell-based, human; conditions: UVB 40 mJ/cm^2
Source text: as §5, §6

[10] = test system: Smad3; experiment: Promotion test of the expression of collagen, western blot; type: cell-based, human; conditions: UVB 40 mJ/cm^2; result in words
Protocol: (§7) It has been known that Smad3 protein can promote the expression level of procollagen-1, and Smad7 protein can inhibit the expression level of Smad3 protein. After cells were irradiated with UV rays, the expression levels of procollagen-1 and Smad3 protein will reduce and the expression level of Smad7 protein will increase. Therefore, in this experiment, the expression levels of intracellular procollagen-1 protein, Smad3 protein and Smad7 protein were analyzed by western blotting.
(§8) Specifically, when the concentration of the compound of formula (2) was 25 μM, the protein expression level of Smad7 was 1.1 times as compared to that of the untreated cells.

[11] = test system: Smad7; experiment: as above; type: cell-based, human; conditions: UVB 40 mJ/cm^2
Protocol: as §7, §8

[12] = test system: procollagen-1; experiment: as above; type: cell-based, human; conditions: 25 μM; UVB 40 mJ/cm^2
Protocol: as §7, §8

[13] = test system: human fibroblast Hs68 cells; experiment: Cellular toxicity evaluation, MTT assay; type: cell-based; conditions: 24 hours
Protocol: MTT (3-(4,5-dimethylthiazol-2-yl)-2,5-diphenyl tetrazolium bromide) assay was used to determine the cellular toxicity of the caffeamide derivatives described herein. First, different concentrations (0 μM to 100 μM) of the compounds of formula (1) or formula (2) prepared in Example 1 of the present invention were added, respectively, into a 96-well microplate which containing human fibroblast Hs68 cells (1×10^4 cells per well). After the cells were incubated in an incubator at 37° C. and 5% CO2 for 24 hours, 15 μl of MTT solution (0.5 mg/ml; dissolved in PBS) was added into the microplate and the human fibroblast Hs68 cells were incubated for 3 hours. Next, 75 μl SDS (sodium dodecyl sulfate) solution (10% SDS was dissolved in 0.01N HCl) was added into the microplate. After the cells were maintained for 24 hours, the absorbances of each well were measured at a wavelength of 570 nm by an enzyme immunoassay analyzer. Finally, the cell survival rate was calculated by the following formula to observe the cellular toxicity of compounds. The results are shown in Table 5, FIG. 10a and FIG. 10b. Cell survival rate(%)=absorbance of the experimental group/absorbance of the control group.

Compound: O=C1O[C@H]([C@@H](O)CO)C(O)=C1O [Ascorbic acid, ascorbic acid, reference compound]
- Scavenging efficiency (%) ([1]; 25 μM): 57.5 ± 1.4%
- Scavenging efficiency (%) ([1]; 50 μM): 89.8 ± 0.9%

Compound: O=C(C=Cc1ccc(O)c(O)c1)NCCc1ccccc1 [Compound of formula (1)]
- EC50 ([1]; DPPH free radical scavenging, read-out: SC50 (the source's name)): 22.1 ± 1.3 µM
- Concentration of ROS (times compared to the untreated cells) ([2]; 5 μM): 1.2 ± 0.13 times
- Concentration of ROS (times compared to the untreated cells) ([2]; 10 μM): 1.0 ± 0.21 times
- Concentration of ROS (times compared to the untreated cells) ([2]; 25 μM): 0.8 ± 0.07 times
- Concentration of ROS (times compared to the untreated cells) ([2]; 25 μM, listed as compound of formula (1)): 0.8 times
- expression level of MMP-1 as compared to that of the untreated cells [3]: 1.0 times
- expression level of MMP-3 as compared to that of the untreated cells [4]: 1.0 times
- expression level of p-ERK as compared to that of the untreated cells ([5]; 10 μM): 1.2 times
- expression level of p-ERK as compared to that of the untreated cells ([5]; 25 μM): 1.3 times
- expression level of p-JNK as compared to that of the untreated cells ([6]; 10 μM): 1.2 times
- expression level of p-JNK as compared to that of the untreated cells ([6]; 25 μM): 0.8 times
- expression level of p-p38 as compared to that of the untreated cells ([7]; 10 μM): 1.2 times
- expression level of p-p38 as compared to that of the untreated cells ([7]; 25 μM): 1.0 times
- expression level of c-Fos as compared to that of the untreated cells [8]: 1.1 times
- expression level of c-Jun as compared to that of the untreated cells ([9]; 10 μM): 1.1 times
- expression level of c-Jun as compared to that of the untreated cells ([9]; 25 μM): 1.2 times
- effect on protein expression level of Smad3 [10]: not affected
- protein expression level of Smad7 as compared to that of the untreated cells ([11]; 5 μM): 1.2 times
- protein expression level of Smad7 as compared to that of the untreated cells ([11]; 10 μM): 0.7 times
- protein expression level of Smad7 as compared to that of the untreated cells ([11]; 25 μM): 0.7 times
- protein expression level of procollagen-1 decreased by UVB, reversed to [12]: 0.7 times
- Cell survival rate (%) ([13]; 5 μM): 99.9 ± 1.8%
- Cell survival rate (%) ([13]; 10 μM): 99.5 ± 4.6%
- Cell survival rate (%) ([13]; 25 μM): 104.2 ± 3.7%
- Cell survival rate (%) ([13]; 50 μM): 107.8 ± 1.2%
